Assay results as given in US20140200136A1, “Agricultural mixtures comprising arylquinazolinone compounds” (BASF SE, priority 2011, published 2014).
Where two headings read alike, the source gives them in different places.

Assays:
Assay type in all cases: cell-based
Pyricularia oryzae = settings: single active
Septoria tritici = test: Activity against leaf blotch on wheat caused by Septoria tritici (Septtr), microtiter plate test; settings: single active
Leptosphaeria nodorum = test: Activity against wheat leaf spots caused by Leptosphaeria nodorum (Leptno), microtiter plate test; settings: single active, 7 days after inoculation

`O=C(Nc1ccccc1-c1ccc(Cl)cc1)c1cccnc1Cl` [Boscalid] was tested, and the Observed efficacy (Pyricularia oryzae; 16 ppm) was 8.

With `Cc1cc(F)c(-n2cnc3ccc(F)cc3c2=O)cc1[S+]([O-])CC(F)(F)F` (stereo not drawn) [CE.I.31, 6-Fluoro-3-[2-fluoro-4-methyl-5-2(2,2,2-trifluoroethanesulfinyl)-phenyl]-3H-quinazolin-4-one] the Observed efficacy (Pyricularia oryzae; 1 ppm) was 8, the Observed efficacy (Pyricularia oryzae; 4 ppm) was 11 and the Observed efficacy (Pyricularia oryzae; 63 ppm) was 16. It also gave an Observed efficacy (Septoria tritici; 63 ppm) of 19 and an Observed efficacy (Leptosphaeria nodorum; concentration 63 ppm) of 19.

Compound `COC(=O)Nc1nc2ccccc2[nH]1` [Carbendazim] has an Observed efficacy (Pyricularia oryzae; 0.25 ppm) of 19.

With `N#Cc1c(Cl)c(Cl)c(Cl)c(C#N)c1Cl` [Chlorothalonil] the Observed efficacy (Pyricularia oryzae; 0.25 ppm) was 30.

In the case of `Cc1ccc(-c2c(Cl)nc(C#N)n2S(=O)(=O)N(C)C)cc1` [Cyazofamid], the Observed efficacy (Pyricularia oryzae; 1 ppm) is reported as 10.

For `CO/N=C(/C1=NOCCO1)c1ccccc1Oc1ncnc(Oc2ccccc2Cl)c1F` [Fluoxastrobin], the Observed efficacy (Septoria tritici; 0.25 ppm) was 58.

In the case of `Cn1cc(C(=O)Nc2ccccc2-c2cc(F)c(F)c(F)c2)c(C(F)F)n1` [Fluxapyroxad], the Observed efficacy (Septoria tritici; 0.063 ppm) is reported as 58.

`CO/C=C(/C(=O)OC)c1ccccc1COc1cccc(C(F)(F)F)n1` [Picoxystrobin] was tested, and the Observed efficacy (Pyricularia oryzae; 0.016 ppm) was 19.

With `COC(=O)N(OC)c1ccccc1COc1ccn(-c2ccc(Cl)cc2)n1` [Pyraclostrobin] the Observed efficacy (Pyricularia oryzae; 0.004 ppm) was 32.

`CON=C(C(=O)OC)c1ccccc1CON=C(C)c1cccc(C(F)(F)F)c1` [Trifloxystrobin] gave an Observed efficacy (Pyricularia oryzae; 0.016 ppm) of 26.

With “zinc propylenebis(dithiocarbamate) polymer [Propineb, reference compound]” the Observed efficacy (Leptosphaeria nodorum; concentration 4 ppm) was 57.
